# Measured values as given in patent US20250170105A1, “ASSOCIATION WITH ANTIBIOTIC ACTIVITY, PHARMACEUTICAL COMPOSITIONS CONTAINING IT AND THEIR USE IN THE TREATMENT OF INFECTIONS” (VETAGRO INTERNATIONAL S.R.L., priority 2022, published 2025).
# Assays:
# Assay type in all cases: cell-based
# Streptococcus suis 701 [1] = experiment: Combination test, checkerboard, % inhibition; conditions: S. suis 701
# Protocol: (§1) Strains were stored at −80° C. in appropriate media with glycerol, thawed and cultured according to conventional practices.
# (§2) The tests were conducted using the microdilution method in a 96-well plate to be microtitered with the medium and culture conditions appropriate for the strains. Bacterial strains (10^5-10^6 CFU/ml) were incubated with the compounds to be tested, while control strains, when necessary, were grown in media containing 3.5% ethanol to exclude an inhibitory effect of any ethanol present in the stock solutions. After incubation, MIC was defined as the lowest concentration resulting in zero absorbance at 630 nm, recorded with Varioskan® LUX Multimode Microplat Reader (Thermo Fisher Scientific). For each test, the percentage of inhibition (%) was calculated with respect to the relative control.
# (§3) After phase 1, the strains were tested with associations at sub-effective doses of AB and OA or NIC in a 2×2 checkerboard model. Specifically, two sub-effective doses of AB were associated with two sub-effective doses of OA or NIC (half and one-quarter of MICs) as shown in FIG. 1.
# (§4) The % indicate the percentage of inhibition (compounds alone and combinations).
# (§5) Tables 4 to 7 show the % of inhibition of the components of the associations alone, at the effective concentrations shown in Tables 2 and 3, and at the sub-effective concentrations (half and one-quarter of MICs), and the % of inhibition of the associations.
# Escherichia Coli K88 95 [2] = experiment: Combination test, checkerboard, % inhibition; conditions: E. coli 95
# Protocol: as §1, §2, §3, §4, §5
# Streptococcus suis 702 [3] = experiment: Combination test, checkerboard, % inhibition; conditions: S. suis 702
# Protocol: as §1, §2, §3, §4, §5
# Escherichia coli K88 97 [4] = experiment: Combination test, checkerboard, % inhibition; conditions: E. coli 97
# Protocol: as §1, §2, §3, §4, §5
# Streptococcus suis 701 [5] = experiment: Individual tests, microdilution MIC; conditions: S. suis 701; for MIC: Streptococcus suis, read-out: MIC values
# Protocol: as §1
# (§6) The ABs shown in Tables 2 and 3 below, all obtained from Aplha Aesar, were tested. The OAs used are shown in Tables 2 and 3 below, all obtained from Merck. The stock solutions were prepared appropriately and in appropriate way and media for the different strains and could contain 3.5% ethanol to increase solubility.
# as §2
# (§7) ABs were tested in the range 64-0.13 ppm, OAs in the range […] and NICs in the range 7.5-0.06 nM.
# Escherichia Coli K88 95 [6] = experiment: Individual tests, microdilution MIC; conditions: E. coli 95; for MIC: Escherichia coli, COLIK8895, read-out: MIC values
# Protocol: as §1, §6, §2, §7
# Streptococcus suis 702 [7] = experiment: Individual tests, microdilution MIC; conditions: S. suis 702; for MIC: Streptococcus suis, read-out: MIC values
# Protocol: as §1, §6, §2, §7
# Escherichia coli K88 97 [8] = experiment: Individual tests, microdilution MIC; conditions: E. coli 97; for MIC: Escherichia coli, K8897, read-out: MIC values
# Protocol: as §1, §6, §2, §7
compound,measurement,setting,value
"C/C=C/C=C/C(=O)O [Sorbic Acid, sorbic acid]",% inhibition,Streptococcus suis 701 [1]; SOR 25 mM alone,30%
same,% inhibition,Streptococcus suis 701 [1]; SOR 50 mM alone,56%
same,% inhibition,Escherichia Coli K88 95 [2]; SOR 12.5 mM alone,69%
same,% inhibition,Escherichia Coli K88 95 [2]; SOR 25 mM alone,85%
same,% inhibition,Streptococcus suis 702 [3]; SOR 12.5 mM alone,26%
same,% inhibition,Streptococcus suis 702 [3]; SOR 25 mM alone,38%
same,% inhibition,Escherichia coli K88 97 [4]; SOR 12.5 mM alone,79%
same,% inhibition,Escherichia coli K88 97 [4]; SOR 25 mM alone,93%
same,MIC,Streptococcus suis 701 [5],100 mM
same,MIC,Escherichia Coli K88 95 [6],50 mM
same,MIC,Streptococcus suis 702 [7],50 mM
same,MIC,Escherichia coli K88 97 [8],50 mM
Cc1cc(NS(=O)(=O)c2ccc(N)cc2)no1 [Sulfamethoxazole],MIC,Escherichia Coli K88 95 [6],> 608 µg/mL
same,MIC,Escherichia coli K88 97 [8],> 608 µg/mL
"CN(C)[C@@H]1C(O)=C(C(N)=O)C(=O)[C@@]2(O)C(O)=C3C(=O)c4c(O)cccc4[C@@](C)(O)[C@H]3C[C@@H]12 [Tetracycline, tetracycline, reference compound]",% inhibition,Streptococcus suis 701 [1]; TET 16 ppm alone,11%
same,% inhibition,Streptococcus suis 701 [1]; TET 32 ppm alone,28%
same,% inhibition,Streptococcus suis 702 [3]; TET 0.5 ppm alone,20%
same,% inhibition,Streptococcus suis 702 [3]; TET 1 ppm alone,27%
same,MIC,Streptococcus suis 701 [5],64 µg/mL
same,MIC,Escherichia Coli K88 95 [6],> 64 µg/mL
same,MIC,Streptococcus suis 702 [7],2 µg/mL
same,MIC,Escherichia coli K88 97 [8],> 64 µg/mL
"Cc1ccc(C(C)C)c(O)c1 [Thymol, 2-isopropyl-5-methylphenol]",% inhibition,Streptococcus suis 701 [1]; THY 0.47 mM alone,0%
same,% inhibition,Streptococcus suis 701 [1]; THY 0.94 mM alone,39%
same,% inhibition,Escherichia Coli K88 95 [2]; THY 0.47 mM alone,7%
same,% inhibition,Escherichia Coli K88 95 [2]; THY 0.94 mM alone,18%
same,% inhibition,Streptococcus suis 702 [3]; THY 0.47 mM alone,10%
same,% inhibition,Streptococcus suis 702 [3]; THY 0.94 mM alone,36%
same,% inhibition,Escherichia coli K88 97 [4]; THY 0.47 mM alone,8%
same,% inhibition,Escherichia coli K88 97 [4]; THY 0.94 mM alone,12%
same,MIC,Streptococcus suis 701 [5],1.87 mM
same,MIC,Escherichia Coli K88 95 [6],1.87 mM
same,MIC,Streptococcus suis 702 [7],1.87 mM
same,MIC,Escherichia coli K88 97 [8],1.87 mM
C=C[C@]1(C)C[C@@H](OC(=O)CSCCN(CC)CC)[C@]2(C)[C@H](C)CC[C@]3(CCC(=O)[C@H]32)[C@@H](C)[C@@H]1O [Tiamulin],MIC,Streptococcus suis 701 [5],4 µg/mL
same,MIC,Streptococcus suis 702 [7],1 µg/mL
COc1cc(Cc2cnc(N)nc2N)cc(OC)c1OC [Trimethoprim],MIC,Escherichia Coli K88 95 [6],> 32 µg/mL
same,MIC,Escherichia coli K88 97 [8],> 32 µg/mL
CC[C@H]1OC(=O)C[C@@H](O)[C@H](C)[C@@H](O[C@@H]2O[C@H](C)[C@@H](O[C@H]3C[C@@](C)(O)[C@@H](O)[C@H](C)O3)[C@H](N(C)C)[C@H]2O)[C@@H](CC=O)C[C@@H](C)C(=O)/C=C/C(C)=C/[C@@H]1CO[C@@H]1O[C@H](C)[C@@H](O)[C@@H](OC)[C@H]1OC [Tylosin],MIC,Streptococcus suis 701 [5],2 µg/mL
same,MIC,Streptococcus suis 702 [7],> 64 µg/mL
Penicillin,MIC values,Streptococcus suis 701 [5],0.13 ppm
same,MIC values,Streptococcus suis 702 [7],0.13 ppm
colistin [reference compound],% inhibition,Escherichia Coli K88 95 [2]; COL 4 ppm alone,3%
same,% inhibition,Escherichia Coli K88 95 [2]; COL 8 ppm alone,8%
same,% inhibition,Escherichia Coli K88 95 [2]; COL 16 ppm alone,40%
same,% inhibition,Escherichia coli K88 97 [4]; COL 4 ppm alone,10%
same,% inhibition,Escherichia coli K88 97 [4]; COL 8 ppm alone,12%
same,% inhibition,Escherichia coli K88 97 [4]; COL 16 ppm alone,29%
same,MIC values,Escherichia Coli K88 95 [6],32 ppm
same,MIC values,Escherichia coli K88 97 [8],32 ppm
neomycin [reference compound],% inhibition,Streptococcus suis 701 [1]; NEO 2 ppm alone,6%
same,% inhibition,Streptococcus suis 701 [1]; NEO 4 ppm alone,15%
same,% inhibition,Streptococcus suis 702 [3]; NEO 4 ppm alone,10%
same,% inhibition,Streptococcus suis 702 [3]; NEO 8 ppm alone,16%
same,MIC values,Streptococcus suis 701 [5],8 ppm
same,MIC values,Escherichia Coli K88 95 [6],>64 ppm
same,MIC values,Streptococcus suis 702 [7],16 ppm
same,MIC values,Escherichia coli K88 97 [8],>64 ppm
